{"source": "ChEMBL document CHEMBL1127360", "about": "“Antipodal alpha-N-(methyl through decyl)-N-normetazocines (5,9 alpha-dimethyl-2'-hydroxy-6,7-benzomorphans): in vitro and in vivo properties” (J Med Chem, 1994)", "key": {"Mus musculus [1]": {"tested_on": "Mus musculus", "assay": "In vivo for its narcotic antagonistic activity of the antinociceptive effect in mouse", "type": "functional, organism-based"}, "Mus musculus [2]": {"tested_on": "Mus musculus", "assay": "In vivo antinociceptive activity was tested through tail flick (TF) with this compound in mouse at 30 mg/kg concentration", "type": "functional"}, "Mus musculus [3]": {"tested_on": "Mus musculus", "assay": "In vivo antinociceptive activity at 10 mg/kg was tested through hot plate (HP) by placing mouse on hot plate, and calculating number of times it jumps or licks its paw in 5 seconds", "type": "functional"}, "Mus musculus [4]": {"tested_on": "Mus musculus", "assay": "In vivo antinociceptive activity at 10 mg/kg was tested through injecting 2 mg/kg ip phenylquinone, activity calculated by total number of abdominal-stretches per group counted over a 1 min period", "type": "functional"}, "Mu-type opioid receptor": {"target": "Mu-type opioid receptor (Rattus norvegicus, UniProt P33535)", "sequence (P33535 whole entry)": "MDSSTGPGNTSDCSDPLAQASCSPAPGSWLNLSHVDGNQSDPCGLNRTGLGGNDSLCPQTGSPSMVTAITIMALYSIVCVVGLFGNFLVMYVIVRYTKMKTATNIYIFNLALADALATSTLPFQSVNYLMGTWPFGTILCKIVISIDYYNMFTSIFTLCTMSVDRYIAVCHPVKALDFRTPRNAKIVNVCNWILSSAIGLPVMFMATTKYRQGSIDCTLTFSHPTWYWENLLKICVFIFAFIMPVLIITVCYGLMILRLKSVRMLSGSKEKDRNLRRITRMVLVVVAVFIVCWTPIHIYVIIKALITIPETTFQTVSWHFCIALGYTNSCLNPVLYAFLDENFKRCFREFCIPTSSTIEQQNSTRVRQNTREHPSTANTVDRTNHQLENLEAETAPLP", "assay": "Inhibition against mu receptor using [3H]DAMGO in homogenate of rat brain cerebellum", "type": "tissue-based"}, "Glutamate NMDA receptor": {"target": "Glutamate NMDA receptor", "assay": "Inhibition using [3H]TCP in homogenate of rat brain", "type": "tissue-based"}}, "note": "Activity calls are given as the source filed them. The rule behind the calls is not given here.", "data": [{"molecule": "C[C@@H]1C2Cc3ccc(O)cc3[C@]1(C)CCN2", "values": [{"measurement": "Activity", "setting": "Mus musculus [1]", "value": "inactive"}, {"measurement": "inhibition in vivo at 30 mg/kg", "setting": "Mus musculus [2]", "value": 27, "unit": "%"}, {"measurement": "inhibition in vivo at 10 mg/kg", "setting": "Mus musculus [3]", "value": 13, "unit": "%"}, {"measurement": "Inhibition", "setting": "Mus musculus [4]", "value": 23, "unit": "%"}, {"measurement": "Ki", "setting": "Mu-type opioid receptor", "value": 470, "unit": "nM"}, {"measurement": "Ki", "setting": "Glutamate NMDA receptor", "value": 30, "unit": "nM"}]}]}
